Assay results as given in PMC6372245, “Tetrahydroisoquinoline Sulfamates as Potent Microtubule Disruptors: Synthesis, Antiproliferative and Antitubulin Activity of Dichlorobenzyl-Based Derivatives, and a Tubulin Cocrystal Structure” (ACS Omega, 2019).
Like-named read-outs stand apart in the source and are kept apart here.

Experiments:
lung HOP-62 = assay: NCI-60 cell line panel antiproliferative assay, HOP-62; assay type: cell-based; conditions: NCI-60 panel; mean of triplicate experiments
Method: (§1) All six compounds were evaluated at the US National Cancer Institute (NCI) in the full 60-cell-line assay that allows activity across a wide range of cancer types to be assessed (Tables 1 and 2). The in vitro activities of these compounds against DU-145 prostate and MDA MB-231 breast cancer cell line proliferation are shown in Table 1. Data from both cell lines are in strong agreement. […] However, no further enhancement was observed when the 5′-methoxy group too was replaced with a 5′-chloro substituent. As these (±)-C3 methyl-substituted THIQs adopt a steroid-like conformation with the substituent at C5′ pointing into the same area of space as the steroidal C17 β-hydroxyl group,[1]−[3] it seems likely that the substituent at C2′ will sterically interact with the two hydrogens at C1. Therefore, only relatively small one-atom substituents such as chlorine seem well tolerated at the C2′ position. Note that the hydrogen and fluoro substituents at C2′ in combination with a C5′ methoxy group were also very well tolerated.[3] It seems that the only marginally larger C2′ methoxy group could already force too much of an angle between the THIQ B-ring and the pendant N2-benzyl ring, resulting in a less favorable overall conformation, leading to a decrease in activity (4a; MDA MB-231: 2.1 μM). However, there seem to be less restrictions for the second H-bond acceptor at C5′ and more space might be available around that binding site. Note, of course, that in all cases here, the activities of racemic mixtures are being compared, with all usual caveats, but vide infra for further discussion on this point.
(§2) Additionally, data from six more tumor cell lines are presented along with the mean activity across the whole panel (MGM value; Table 2). The trend that emerged for these THIQ derivatives against the proliferation of DU-145 prostate cancer cells and MDA MB-231 breast cancer cells in vitro was essentially confirmed across the whole NCI 60-cell-line assay. […] Additionally, the trend mentioned above with regard to 4a–b and 8c seems to hold well.

melanoma UACC-62 = assay: NCI-60 cell line panel antiproliferative assay, UACC-62; assay type: cell-based; conditions: NCI-60 panel; mean of triplicate experiments
Method: as §1, §2

[1] = system: all 60 cell lines of the NCI-60 panel; assay: NCI-60 cell line panel, mean activity across all 60 cell lines (MGM); assay type: cell-based; conditions: NCI-60 panel; read-out: MGM (mean concentration that caused 50% growth inhibition in all 60 cell lines)
Method: as §1, §2

[2] = system: MDA MB-231 human breast cancer cells; assay: NCI-60 cell line panel antiproliferative assay, MDA MB-231; assay type: cell-based; conditions: mean of triplicate experiments
Method: as §1

colon HCT-116 = assay: NCI-60 cell line panel antiproliferative assay, HCT-116; assay type: cell-based; conditions: NCI-60 panel; mean of triplicate experiments
Method: as §1, §2

[3] = system: DU-145 human prostate cancer cells; assay: NCI-60 cell line panel antiproliferative assay, DU-145; assay type: cell-based; conditions: for GI50: NCI-60 cell line panel, mean of triplicate experiments
Method: as §1

Bovine brain tubulin [4] = molecular target: T1, Bovine brain tubulin (Bos taurus, UniProt P81947+Q6B856); assay: Tubulin assembly (polymerization) inhibition, turbidity; assay type: biochemical; conditions: 10 μM tubulin; mean ± SD of at least two determinations
T1 construct: Bovine brain tubulin was prepared as previously described[31] and used in the studies presented; from tissue; host or cells: bovine brain
Method: (§3) Bovine brain tubulin was prepared as previously described[31] and used in the studies presented. Assembly IC50’s were determined as fully described elsewhere.[32] In brief, 1.0 mg/mL (10 μM) tubulin was preincubated with varying compound concentrations without GTP for 15 min at 30 °C. Reaction mixtures were placed on ice, and GTP (final concentration, 0.4 mM) was added. Mixtures were transferred to cuvettes held at 0 °C in a recording spectrophotometer. Baselines were established at 0 °C and increase in turbidity was followed for 20 min following a rapid (<30 s) jump to 30 °C. Concentrations of compound required to reduce the turbidity increase by 50% were determined. Inhibition of the binding of [^3H]colchicine to tubulin was described fully previously.[33] Reaction mixtures contained 0.1 mg/mL (1.0 μM) tubulin, 5.0 μM [^3H]colchicine, and a potential inhibitor at 5.0 μM.

Bovine brain tubulin [5] = molecular target: T1, Bovine brain tubulin; assay: Inhibition of [3H]colchicine binding to tubulin; conditions: 5 μM inhibitor, 5.0 μM [3H]colchicine, 1.0 μM tubulin; mean ± SD
Method: as §3

renal SN12-C = assay: NCI-60 cell line panel antiproliferative assay, SN12-C; assay type: cell-based; conditions: NCI-60 panel; mean of triplicate experiments
Method: as §1, §2

ovarian OVCAR-3 = assay: NCI-60 cell line panel antiproliferative assay, OVCAR-3; assay type: cell-based; conditions: NCI-60 panel; mean of triplicate experiments
Method: as §1, §2

CNS SF-539 = assay: NCI-60 cell line panel antiproliferative assay, SF-539; assay type: cell-based; conditions: NCI-60 panel; mean of triplicate experiments
Method: as §1, §2

Bovine brain tubulin [6] = molecular target: T1, Bovine brain tubulin; conditions: very slightly different assay conditions; read-out: antitubulin IC50 (tubulin assembly); cited from earlier work
Bovine brain tubulin [7] = molecular target: T1, Bovine brain tubulin; conditions: very slightly different assay conditions; cited from earlier work

T1 sequence (Q6B856 whole entry): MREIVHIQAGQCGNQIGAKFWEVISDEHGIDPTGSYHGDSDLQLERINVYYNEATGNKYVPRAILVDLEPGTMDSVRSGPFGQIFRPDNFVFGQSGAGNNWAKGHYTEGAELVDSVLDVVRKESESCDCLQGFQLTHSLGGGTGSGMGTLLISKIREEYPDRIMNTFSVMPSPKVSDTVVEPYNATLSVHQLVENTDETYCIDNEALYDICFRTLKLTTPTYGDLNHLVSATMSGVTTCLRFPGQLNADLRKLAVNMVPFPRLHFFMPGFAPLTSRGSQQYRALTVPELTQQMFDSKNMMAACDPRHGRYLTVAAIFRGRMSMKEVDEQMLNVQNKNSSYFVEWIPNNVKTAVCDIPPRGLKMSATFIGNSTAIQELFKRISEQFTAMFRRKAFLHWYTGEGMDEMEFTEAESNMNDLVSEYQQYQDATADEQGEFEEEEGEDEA
T1 sequence (P81947 whole entry): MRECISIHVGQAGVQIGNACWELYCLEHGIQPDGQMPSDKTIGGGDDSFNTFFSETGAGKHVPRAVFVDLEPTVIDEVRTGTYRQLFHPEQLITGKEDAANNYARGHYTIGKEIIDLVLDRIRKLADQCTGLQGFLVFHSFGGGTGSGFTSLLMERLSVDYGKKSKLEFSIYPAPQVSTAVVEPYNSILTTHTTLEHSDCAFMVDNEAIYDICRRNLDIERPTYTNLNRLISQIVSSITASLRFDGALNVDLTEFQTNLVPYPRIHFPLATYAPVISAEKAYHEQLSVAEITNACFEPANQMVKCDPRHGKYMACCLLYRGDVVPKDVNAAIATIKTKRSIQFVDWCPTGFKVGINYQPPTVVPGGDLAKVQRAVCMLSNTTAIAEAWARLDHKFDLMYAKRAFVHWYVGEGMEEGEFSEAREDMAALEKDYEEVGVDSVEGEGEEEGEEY

Row | Structure (SMILES) | GI50 (lung HOP-62) | GI50 (melanoma UACC-62) | IC50 [1] | GI50 [2] | GI50 (colon HCT-116) | GI50 [3] | IC50 (Bovine brain tubulin [4]) | colchicine binding (% inhibition) (Bovine brain tubulin [5]) | GI50 (renal SN12-C) | GI50 (ovarian OVCAR-3) | GI50 (CNS SF-539) | inhibition at 5 µM (Bovine brain tubulin [5]) | IC50 (Bovine brain tubulin [6]) | inhibition of colchicine binding (Bovine brain tubulin [7]) | fold less active than corresponding sulfamate, antiproliferative ([3]; DU-145 and MDA MB-231 cells, phenol vs its sulfamate)
1 | COc1cc2c(cc1OS(N)(=O)=O)CC(C)N(Cc1ccc(Cl)cc1Cl)C2 (racemic) [8b, (±)-2-(2,4-Dichlorobenzyl)-7-methoxy-3-methyl-6-sulfamoyloxy-1,2,3,4-tetrahydroisoquinoline] | 183 nM | 50 nM | 151 nM | 365 nM | 54 nM | 195 nM | 1400 ± 200 nM | 47 ± 2% | 657 nM | 45 nM | 106 nM | – | – | – | –
2 | COc1cc2c(cc1OS(N)(=O)=O)CCN(Cc1cc(Br)c(OC)c(OC)c1)C2 [compound 10, 2-(3′-bromo-4′,5′-dimethoxybenzyl)-7-methoxy-6-sulfamoyloxy-1,2,3,4-THIQ] | – | – | – | – | – | – | 1300 ± 10 nM | – | – | – | – | 49 ± 3% | – | – | –
3 | COc1cc2c(cc1OS(N)(=O)=O)CC(C)N(Cc1cc(Br)c(OC)c(OC)c1)C2 (stereo not shown) [compound 11] | – | – | – | – | – | – | – | – | – | – | – | – | 2400 nM | 50% | –
4 | COc1cc2c(cc1O)CC(C)N(Cc1cc(Cl)ccc1Cl)C2 (racemic) [7c, (±)-2-(2,5-Dichlorobenzyl)-6-hydroxy-7-methoxy-3-methyl-1,2,3,4-tetrahydroisoquinoline] | 330 nM | 448 nM | 324 nM | 542 nM | 260 nM | 241 nM | – | – | 706 nM | 170 nM | 132 nM | – | – | – | –
5 | COc1cc2c(cc1O)CC(C)N(Cc1cccc(Cl)c1Cl)C2 (racemic) [7a, (±)-2-(2,3-Dichlorobenzyl)-6-hydroxy-7-methoxy-3-methyl-1,2,3,4-tetrahydroisoquinoline] | 3690 nM | 4370 nM | 5010 nM | 7050 nM | 4610 nM | 4180 nM | – | – | 5830 nM | 2640 nM | 4390 nM | – | – | – | more than 10 fold
